Read-outs that look alike come from different tables or passages of the source.
Experiment: Multi-component pharmacokinetics in rat plasma after oral administration of RB, RPA or RB-RPA extracts (UPLC-HRMS, non-compartmental analysis)
Type: in vivo, Sprague-Dawley rats
Settings: for AUC0-t / AUC0-∞ / Cmax / t1/2 / tmax / AUC(0-inf) / half-life: rat plasma, mean ± SD, n = 7; for change of t1/2 after combination: oral RB-RPA group vs single herbal group
Description: (Beijing, China, No. SCXK2018-0011). […] All rats were free to access the water and food until 12 h before the experiment. The animal study was reviewed and approved by the Experimental Animal Ethical Committee of Modern Research Center for Traditional Chinese Medicine, Shanxi University (animal ethic approval number: SXULL2018018), and all experimental procedures were carried out in accordance with the NIH Guide for the Care and Use of Laboratory Animals. After one week of adaptation, twenty-one rats were divided into three groups randomly, with seven rats in each group: 1) RPA group, were oral administration of Radix Paeoniae Alba extract (45 g-herb/kg); 2) RB group, were oral administration of Radix Bupleuri extract (45 g-herb/kg); 3) RB-RPA group, were oral administration of powder mixture of Radix Bupleuri and Radix Paeoniae Alba extracts (containing 45 g-herb/kg Radix Bupleuri and 45 g-herb/kg Radix Paeoniae Alba). […] Each group received intragastric administration with a volume of 10 ml/kg (rat body weight). […] All rats were free to access the water during the experiment. The blood samples at each time point were collected from seven rats. The blood samples were centrifuged at 4,000 rpm for 10 min and frozen at -80°C until analysis. Using a Thermo-Fisher Dionex UltiMate 3000 UHPLC system coupled with a Q Exactive Orbitrap-MS (Thermo-Fisher, United States) and Xcalibur workstation (Thermo-Fisher Scientific Inc.,Waltham, MA, United States) to acquire UPLC-HRMS raw data. Chromatographic separation of herb extracts and plasma samples was performed on an Acquity UPLC HSS T3 column (2.1 mm × 100 mm, 1.8 μm) maintained at 37°C. The flow rate was 0.2 ml/min and the injection volume was 5 μL. […] Mass spectrometry detection conditions were set as follows: the MS data were acquired under positive and negative ionization modes via heated electrospray ionization (HESI) source. […] The Q Exactive Orbitrap-MS has a fast positive and negative ion switching function, which could switch between positive-negative ion modes during the analysis of the same sample. So, we applied the method of switching ion modes in the detection process to quantify all analytes better. […] UPLC/MS/MS calibration and quantitation data were processed with Xcalibur workstation (Thermo-Fisher Scientific Inc., Waltham, MA, United States). For the eight components with standard reference, calculating their concentrations from the standard curves. For the other 30 components without standard reference, their concentrations were analyzed following the regression equations of homologous compounds ([Qiao et al., 2012]): paeoniflorin for P1 and M1 to M3; methylgallate for M4 to M10; saikosaponin […] and […]; saikosaponin […]; saikosaponin […]; saikosaponin B2 for P11 and M25 to […].

[1] = oral RB single extract 45 g-herb/kg
[2] = oral RB-RPA mixed extracts (45 g-herb/kg RB + 45 g-herb/kg RPA)
[3] = male, Sprague-Dawley, rat, plasma, po, 45 g/kg, oral RB single extract 45 g-herb/kg
[4] = oral administration of mixed extracts RB-RPA
[5] = oral administration of single extract RPA

AUC0-t [1]	AUC0-∞ [1]	Cmax [1]	t1/2 [1]	tmax [1]	AUC0-t [2]	AUC0-∞ [2]	Cmax [2]	t1/2 [2]	tmax [2]	Compound	further results
81.39 ± 36.37 ng·h/mL	85.33 ± 40.21 ng·h/mL	16.51 ± 8.25 ng/mL	5.10 ± 1.21 h	1.17 ± 0.26 h	131.78 ± 59.75 ng·h/mL	141.32 ± 65.28 ng·h/mL	19.75 ± 10.49 ng/mL	5.78 ± 2.37 h	0.92 ± 0.20 h	CC1(C)CC[C@@]2(CO)C(=C3C=C[C@@H]4[C@@]5(C)CC[C@H](O)[C@@](C)(CO)[C@@H]5CC[C@@]4(C)[C@]3(C)C[C@H]2O)C1 [Saikogenin D]	–
34.53 ± 9.88 ng·h/mL	38.46 ± 9.92 ng·h/mL	12.31 ± 5.03 ng/mL	3.40 ± 1.47 h	0.75 ± 0.16 h	40.24 ± 15.68 ng·h/mL	45.24 ± 14.83 ng·h/mL	13.41 ± 6.28 ng/mL	3.99 ± 2.19 h	0.79 ± 0.10 h	CC1(C)CC[C@]23CO[C@@]4(C=C[C@@H]5[C@@]6(C)CC[C@H](O)C(C)(C)[C@@H]6CC[C@@]5(C)[C@]4(C)C[C@@H]2O)[C@@H]3C1 [Saikogenin E]	–
156.14 ± 83.93 ng·h/mL	159.01 ± 82.32 ng·h/mL	30.25 ± 13.93 ng/mL	4.01 ± 1.88 h	1.04 ± 0.25 h	301.08 ± 199.77 ng·h/mL	347.02 ± 174.43 ng·h/mL	34.09 ± 17.25 ng/mL	6.80 ± 2.11 h	1.17 ± 0.26 h	CC1(C)CC[C@]23CO[C@@]4(C=C[C@@H]5[C@@]6(C)CC[C@H](O)[C@@](C)(CO)[C@@H]6CC[C@@]5(C)[C@]4(C)C[C@@H]2O)[C@@H]3C1 [Saikogenin F]	–
50.01 ± 16.60 ng·h/mL	57.20 ± 17.81 ng·h/mL	11.26 ± 4.74 ng/mL	3.96 ± 1.59 h	0.75 ± 0.00 h	88.79 ± 41.87 ng·h/mL	99.59 ± 41.70 ng·h/mL	12.67 ± 4.42 ng/mL	6.53 ± 2.21 h	0.71 ± 0.10 h	CC1(C)CC[C@]23CO[C@@]4(C=C[C@@H]5[C@@]6(C)CC[C@H](O)[C@@](C)(CO)[C@@H]6CC[C@@]5(C)[C@]4(C)C[C@H]2O)[C@@H]3C1 [Saikogenin G]	–
–	–	–	–	–	–	–	–	–	–	C[C@H]1O[C@@H](O[C@H]2CC[C@@]3(C)[C@@H](CC[C@]4(C)[C@@H]3C=C[C@]35OC[C@@]6(CCC(C)(C)C[C@H]63)[C@@H](O)C[C@]54C)[C@]2(C)CO)[C@H](O)[C@@H](O[C@@H]2O[C@H](CO)[C@@H](O)[C@H](O)[C@H]2O)[C@H]1O [Saikosaponin A]	AUC(0-inf) [3]: 104 ± 38.6 ng·h/mL; half-life [3]: 2.13 ± 0.43 h; AUC0-t (male, Sprague-Dawley, rat, plasma, po, 45 g/kg, oral RB single extract 45 g-herb/kg, read-out: AUC0-t): 102 ± 38.5 ng·h/mL; Cmax (male, Sprague-Dawley, rat, plasma, po, 45 g/kg, oral RB single extract 45 g-herb/kg, read-out: Cmax): 68.4 ± 16.9 ng/mL; tmax (male, Sprague-Dawley, rat, plasma, po, 45 g/kg, oral RB single extract 45 g-herb/kg, read-out: tmax): 0.54 ± 0.1 h; AUC(0-inf) (male, Sprague-Dawley, rat, plasma, po, 45 g/kg, oral RB-RPA mixed extracts (45 g-herb/kg RB + 45 g-herb/kg RPA)): 176 ± 45.9 ng·h/mL; Cmax (male, Sprague-Dawley, rat, plasma, po, 45 g/kg, oral RB-RPA mixed extracts (45 g-herb/kg RB + 45 g-herb/kg RPA), read-out: Cmax): 46.5 ± 12.4 ng/mL; half-life (male, Sprague-Dawley, rat, plasma, po, oral RB-RPA mixed extracts (45 g-herb/kg RB + 45 g-herb/kg RPA)): 3.55 ± 0.57 h; AUC0-t (male, Sprague-Dawley, rat, plasma, po, oral RB-RPA mixed extracts (45 g-herb/kg RB + 45 g-herb/kg RPA), read-out: AUC0-t): 170 ± 48.2 ng·h/mL; tmax (male, Sprague-Dawley, rat, plasma, po, oral RB-RPA mixed extracts (45 g-herb/kg RB + 45 g-herb/kg RPA), read-out: tmax): 0.63 ± 0.21 h; change of t1/2 after combination (rat): longer
65.14 ± 19.35 ng·h/mL	67.92 ± 19.39 ng·h/mL	22.33 ± 2.99 ng/mL	2.70 ± 1.52 h	0.67 ± 0.13 h	98.63 ± 18.36 ng·h/mL	104.39 ± 23.28 ng·h/mL	28.19 ± 5.50 ng/mL	2.89 ± 1.14 h	0.83 ± 0.20 h	C[C@H]1O[C@@H](O[C@H]2CC[C@@]3(C)[C@@H](CC[C@]4(C)[C@@H]3C=CC3=C5CC(C)(C)CC[C@]5(CO)[C@H](O)C[C@]34C)[C@]2(C)CO)[C@H](O)[C@@H](O[C@@H]2O[C@H](CO)[C@@H](O)[C@H](O)[C@H]2O)[C@H]1O [Saikosaponin B2]	–
38.82 ± 9.84 ng·h/mL	42.15 ± 8.73 ng·h/mL	31.12 ± 11.08 ng/mL	2.07 ± 1.12 h	0.50 ± 0.16 h	51.33 ± 16.19 ng·h/mL	53.67 ± 16.16 ng·h/mL	20.63 ± 5.65 ng/mL	2.53 ± 1.54 h	0.66 ± 0.30 h	C[C@@H]1O[C@@H](O[C@@H]2[C@H](O)[C@@H](O)[C@H](O[C@H]3CC[C@@]4(C)C(CC[C@]5(C)C4C=C[C@]46OC[C@@]7(CCC(C)(C)CC74)[C@@H](O)C[C@]65C)C3(C)C)O[C@@H]2CO[C@@H]2O[C@H](CO)[C@@H](O)[C@H](O)[C@H]2O)[C@H](O)[C@H](O)[C@H]1O (stereo partly shown) [Saikosaponin C]	–
16.86 ± 4.34 ng·h/mL	19.75 ± 3.88 ng·h/mL	14.82 ± 4.41 ng/mL	3.81 ± 1.29 h	0.42 ± 0.13 h	23.18 ± 12.77 ng·h/mL	26.03 ± 13.58 ng·h/mL	12.94 ± 6.29 ng/mL	3.18 ± 1.01 h	0.42 ± 0.13 h	Acetyl-saikosaponin B2	–
–	–	–	–	–	–	–	–	–	–	Paeonimetabolin II	AUC0-t [4]: 9490.91 ± 4705.90 ng·h/mL; AUC0-∞ [4]: 13198.67 ± 4477.34 ng·h/mL; Cmax [4]: 984.50 ± 452.44 ng/mL; t1/2 [4]: 9.30 ± 2.76 h; tmax [4]: 1.17 ± 0.90 h; AUC0-t [5]: 6694.27 ± 2468.69 ng·h/mL; AUC0-∞ [5]: 8022.12 ± 2764.81 ng·h/mL; Cmax [5]: 850.12 ± 292.63 ng/mL; t1/2 [5]: 9.22 ± 2.04 h; tmax [5]: 1.04 ± 0.37 h; change of AUC0-∞ after combination (rat, oral RB-RPA group vs single herbal group (RB or RPA)): significantly increased
–	–	–	–	–	–	–	–	–	–	Pyrogallol glucuronide	AUC0-t [4]: 643.56 ± 348.44 ng·h/mL; AUC0-∞ [4]: 825.47 ± 393.90 ng·h/mL; Cmax [4]: 47.97 ± 13.98 ng/mL; t1/2 [4]: 10.49 ± 2.78 h; tmax [4]: 2.92 ± 1.43 h; AUC0-t [5]: 262.73 ± 101.68 ng·h/mL; AUC0-∞ [5]: 336.41 ± 159.76 ng·h/mL; Cmax [5]: 34.21 ± 4.94 ng/mL; t1/2 [5]: 6.16 ± 2.02 h; tmax [5]: 2.67 ± 1.85 h; AUC0-∞ after combination relative to RPA alone (rat, oral RB-RPA vs RPA alone): 245.38%; Cmax after combination relative to RPA alone (rat, oral RB-RPA vs RPA alone): 140.22%; t1/2 after combination relative to RPA alone (rat, oral RB-RPA vs RPA alone): 170.29%

Compound	AUC0-t [1]	AUC0-∞ [1]	Cmax [1]	t1/2 [1]	tmax [1]	AUC0-t [2]	AUC0-∞ [2]	Cmax [2]	t1/2 [2]	tmax [2]	further results
C[C@H]1O[C@@H](O[C@H]2CC[C@@]3(C)[C@@H](CC[C@]4(C)[C@@H]3C=C[C@]35OC[C@@]6(CCC(C)(C)C[C@H]63)[C@H](O)C[C@]54C)[C@]2(C)CO)[C@H](O)[C@@H](O[C@@H]2O[C@H](CO)[C@@H](O)[C@H](O)[C@H]2O)[C@H]1O [Saikosaponin D]	67.73 ± 18.62 ng·h/mL	69.92 ± 17.38 ng·h/mL	42.84 ± 11.53 ng/mL	2.01 ± 0.34 h	0.50 ± 0.16 h	99.98 ± 31.48 ng·h/mL	103.56 ± 33.67 ng·h/mL	–	2.98 ± 0.89 h	0.87 ± 0.38 h	change of t1/2 after combination (rat): longer

— paper PMC7982521, “Studies on the Changes of Pharmacokinetics Behaviors of Phytochemicals and the Influence on Endogenous Metabolites After the Combination of Radix Bupleuri and Radix Paeoniae Alba Based on Multi-Component Pharmacokinetics and Metabolomics” (Frontiers in Pharmacology, 2021)
